According to PubChem BioAssay AID248 (DTP/NCI, 2004):
Several values for one entry are separate records, joined by “and”; a condition that tells them apart may be missing. Identical values can stand only once. Inconclusive results and toxic doses are left out. Cut-off read from the data, not from the text of the source: active = T/C of 150% or more; inactive = T/C below 125%.

Test system: L1210 leukemia ip in BDF1 mice, survival T/C
Assay: NCI In Vivo Anticancer Drug Screen. Data for tumor model L1210 Leukemia (intraperitoneal) in B6D2F1 (BDF1) mice
Conditions: endpoint: mean survival time, higher = longer survival
How it was run: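 Ratio derived from survival: compound-dosed mice over vehicle-dosed mice, all bearing a transplantable tumor.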

[1] = dose: 75.0 mg/kg/injection, schedule: Q01DX001 (ip), vehicle: other
[2] = dose: 100.0 mg/kg/injection, schedule: Q01DX009 (ip), vehicle: Klucel (hydroxypropylcellulose) (HPC)
[3] = dose: 100.0 mg/kg/injection, schedule: Q04DX003 (ip), vehicle: Klucel (hydroxypropylcellulose) (HPC)
[4] = dose: 100.0 mg/kg/injection, schedule: Q04DX003 (ip), vehicle: saline with Tween-80
[5] = dose: 200.0 mg/kg/injection, schedule: Q04DX003 (ip), vehicle: saline with Tween-80
[6] = dose: 400.0 mg/kg/injection, schedule: Q04DX003 (ip), vehicle: saline with Tween-80
[7] = dose: 100.0 mg/kg/injection, schedule: Q04DX003 (ip), vehicle: saline
[8] = dose: 200.0 mg/kg/injection, schedule: Q04DX003 (ip), vehicle: Klucel (hydroxypropylcellulose) (HPC)
[9] = dose: 400.0 mg/kg/injection, schedule: Q04DX003 (ip), vehicle: Klucel (hydroxypropylcellulose) (HPC)
[10] = dose: 25.0 mg/kg/injection, schedule: Q04DX002 (ip), vehicle: Klucel (hydroxypropylcellulose) (HPC)
[11] = dose: 100.0 mg/kg/injection, schedule: Q04DX002 (ip), vehicle: Klucel (hydroxypropylcellulose) (HPC)
[12] = dose: 200.0 mg/kg/injection, schedule: Q04DX002 (ip), vehicle: Klucel (hydroxypropylcellulose) (HPC)
[13] = dose: 100.0 mg/kg/injection, schedule: Q01DX001 (ip), vehicle: saline
[14] = dose: 200.0 mg/kg/injection, schedule: Q01DX001 (ip), vehicle: saline
[15] = dose: 400.0 mg/kg/injection, schedule: Q01DX001 (ip), vehicle: saline
[16] = dose: 200.0 mg/kg/injection, schedule: Q01DX009 (ip), vehicle: Klucel (hydroxypropylcellulose) (HPC)
[17] = dose: 400.0 mg/kg/injection, schedule: Q04DX002 (ip), vehicle: Klucel (hydroxypropylcellulose) (HPC)
[18] = dose: 400.0 mg/kg/injection, schedule: Q01DX009 (ip), vehicle: Klucel (hydroxypropylcellulose) (HPC)

Measured: T/C

CC1(C)CSC(=S)N1CCC#N
inactive: [1] 104 % of control

O=[N+]([O-])c1cc(F)ccc1O
inactive: [2] 94 % of control | [3] 101 % of control | [4] 97 % of control | [5] 106 % of control

CO/C(Cc1cc(O)cc(O)c1)=N\N
inactive: [4] 93 % of control | [5] 92 % of control | [6] 101 % of control

O=C1CCCCC1Cc1ccccc1 (stereo not given)
inactive: dose: 200.0 mg/kg/injection, schedule: Q04DX003 (ip), vehicle: acetone 95 % of control

O=C(Nc1cc(C2=NCCN2)cc(C2=NCCN2)c1)c1ccc(C(=O)Nc2cc(C3=NCCN3)cc(C3=NCCN3)c2)cc1
inactive: dose: 0.37 mg/kg/injection, schedule: Q01DX Z (ip), vehicle: methylcellulose (MC) 94 % of control | dose: 0.75 mg/kg/injection, schedule: Q01DX Z (ip), vehicle: methylcellulose (MC) 111 % of control | dose: 1.5 mg/kg/injection, schedule: Q01DX Z (ip), vehicle: methylcellulose (MC) 101 % of control | dose: 2.0 mg/kg/injection, schedule: Q01DX Z (ip), vehicle: carboxymethylcellulose (CMC) 108 % of control | dose: 3.0 mg/kg/injection, schedule: Q01DX Z (ip), vehicle: methylcellulose (MC) 95 % of control | dose: 4.0 mg/kg/injection, schedule: Q01DX Z (ip), vehicle: carboxymethylcellulose (CMC) 92 % of control | dose: 15.0 mg/kg/injection, schedule: Q01DX Z (ip), vehicle: carboxymethylcellulose (CMC) 92 % of control

COC(=O)c1cc(C)[n+]([O-])cc1C(=O)OC
inactive: [7] 92 % of control | dose: 200.0 mg/kg/injection, schedule: Q04DX003 (ip), vehicle: saline 97 % of control | dose: 400.0 mg/kg/injection, schedule: Q04DX003 (ip), vehicle: saline 100 % of control

CCc1nc2ccc(N=Cc3ccc(N(CCCl)CCCl)cc3C)cc2[nH]1
inactive: [3] 101 % of control | [8] 98 % of control | [9] 101 % of control

COc1ccc(C#N)cc1OC
inactive: dose: 6.25 mg/kg/injection, schedule: Q04DX002 (ip), vehicle: Klucel (hydroxypropylcellulose) (HPC) 93 % of control | dose: 12.5 mg/kg/injection, schedule: Q04DX002 (ip), vehicle: Klucel (hydroxypropylcellulose) (HPC) 96 % of control | [10] 93 % of control and 96 % of control | [11] 100 % of control | [12] 92 % of control

CC(C)CCCC(C)C1CCC2C3CC(=O)NC4CC(Cl)CCC4(C)C3CCC12C (stereo not given)
inactive: [13] 89 % of control | [7] 86 % of control | [14] 93 % of control | [15] 91 % of control

CC1(C)N=C(N)N=C(N)N1c1ccc(CCc2ccc(S(=O)(=O)F)cc2)cc1
inactive: dose: 100.0 mg/kg/injection, schedule: Q01DX001 (ip), vehicle: saline with Tween-80 97 % of control | dose: 200.0 mg/kg/injection, schedule: Q01DX001 (ip), vehicle: saline with Tween-80 97 % of control | dose: 400.0 mg/kg/injection, schedule: Q01DX001 (ip), vehicle: saline with Tween-80 102 % of control

N#CCCCCCCCCC(=O)c1ccc(O)cc1O
inactive: dose: 87.5 mg/kg/injection, schedule: Q01DX009 (ip), vehicle: Klucel (hydroxypropylcellulose) (HPC) 96 % of control | dose: 175.0 mg/kg/injection, schedule: Q01DX009 (ip), vehicle: Klucel (hydroxypropylcellulose) (HPC) 100 % of control | dose: 350.0 mg/kg/injection, schedule: Q01DX009 (ip), vehicle: Klucel (hydroxypropylcellulose) (HPC) 102 % of control

Cc1ccc(N=Nc2sc(N)nc2C)cc1
inactive: dose: 75.0 mg/kg/injection, schedule: Q01DX001 (ip), vehicle: saline 97 % of control | dose: 150.0 mg/kg/injection, schedule: Q01DX001 (ip), vehicle: saline 102 % of control

Oc1ccc(O)c(CCCc2cc(O)ccc2O)c1
inactive: [4] 98 % of control | [5] 98 % of control | [6] 90 % of control

c1coc(CNc2cc(NCc3ccco3)ncn2)c1
inactive: [2] 98 % of control | [16] 95 % of control

N#CC(C#N)c1c(F)c(F)c(C(F)(F)F)c(F)c1F
inactive: dose: 10.0 mg/kg/injection, schedule: Q04DX003 (ip), vehicle: Klucel (hydroxypropylcellulose) (HPC) 103 % of control | dose: 20.0 mg/kg/injection, schedule: Q01DX001 (ip), vehicle: Klucel (hydroxypropylcellulose) (HPC) 97 % of control | dose: 20.0 mg/kg/injection, schedule: Q04DX003 (ip), vehicle: Klucel (hydroxypropylcellulose) (HPC) 98 % of control | dose: 40.0 mg/kg/injection, schedule: Q01DX001 (ip), vehicle: Klucel (hydroxypropylcellulose) (HPC) 101 % of control | dose: 40.0 mg/kg/injection, schedule: Q04DX003 (ip), vehicle: Klucel (hydroxypropylcellulose) (HPC) 95 % of control

OCCCNc1nc2ccc(Cl)cc2c2ccccc12
inactive: [3] 116 % of control | [8] 107 % of control | [9] 108 % of control

COc1ccc(/C=C2\N=C(c3cc(OC)c(OC)c(OC)c3)OC2=O)cc1OC
inactive: [11] 123 % of control | [12] 101 % of control | [17] 101 % of control

OCCN1CCSC1=S
inactive: dose: 100.0 mg/kg/injection, schedule: Q01DX009 (ip), vehicle: saline with Tween-80 87 % of control | dose: 200.0 mg/kg/injection, schedule: Q01DX009 (ip), vehicle: saline with Tween-80 88 % of control

Cc1ncc(C(C)(O)c2ccc(Cl)cc2)n1Cc1ccccc1 (stereo not given)
inactive: dose: 100.0 mg/kg/injection, schedule: Q01DX001 (ip), vehicle: Klucel (hydroxypropylcellulose) (HPC) 112 % of control | [2] 92 % of control | [3] 92 % of control | dose: 200.0 mg/kg/injection, schedule: Q01DX001 (ip), vehicle: Klucel (hydroxypropylcellulose) (HPC) 98 % of control | [16] 89 % of control | [8] 88 % of control | dose: 400.0 mg/kg/injection, schedule: Q01DX001 (ip), vehicle: Klucel (hydroxypropylcellulose) (HPC) 118 % of control | [18] 92 % of control | [9] 92 % of control

CN(Cc1ccc(Cl)cc1)C(=O)Nc1cccc(C(F)(F)F)c1
inactive: dose: 25.0 mg/kg/injection, schedule: Q01DX009 (ip), vehicle: Klucel (hydroxypropylcellulose) (HPC) 96 % of control | dose: 50.0 mg/kg/injection, schedule: Q01DX009 (ip), vehicle: Klucel (hydroxypropylcellulose) (HPC) 100 % of control | [2] 100 % of control and 90 % of control | [18] 88 % of control

COc1ccc(C(=O)N/N=C/c2ccc(Cl)cc2Cl)cc1
inactive: [2] 102 % of control | [16] 94 % of control | [18] 91 % of control

CC(=O)Oc1ccc2ccccc2c1CN(Cc1c(OC(C)=O)ccc2ccccc12)C(C)=O
inactive: dose: 100.0 mg/kg/injection, schedule: Q01DX001 (ip), vehicle: other 96 % of control | dose: 400.0 mg/kg/injection, schedule: Q01DX001 (ip), vehicle: other 93 % of control

O=C(O)/C=C/c1ccc([N+](=O)[O-])s1
inactive: [11] 90 % of control | [12] 90 % of control

Cc1ccc(C2C(C(=O)O)C2c2ccccc2)cc1 (stereo not given)
inactive: [11] 106 % of control | [12] 95 % of control | [17] 92 % of control

CC(CC=C(CCC(C)CC(C)(C)C)CCC(C)CC(C)(C)C)CC(C)(C)C (stereo not given)
inactive: dose: 75.0 mg/kg/injection, schedule: Q01DX001 (ip), vehicle: saline with Tween-80 99 % of control | dose: 150.0 mg/kg/injection, schedule: Q01DX001 (ip), vehicle: saline with Tween-80 100 % of control | dose: 300.0 mg/kg/injection, schedule: Q01DX001 (ip), vehicle: saline with Tween-80 97 % of control

Cn1c(=O)c2[nH]c(-c3ccc([N+](=O)[O-])cc3)nc2n(C)c1=O
inactive: dose: 50.0 mg/kg/injection, schedule: Q01DX001 (ip), vehicle: saline 98 % of control | [13] 93 % of control | [14] 96 % of control | [15] 93 % of control

CC(C)(CO)N=Cc1ccccc1O.CC(C)(CO)N=Cc1ccccc1O.[Cu].[Cu]
inactive: [1] 98 % of control | dose: 150.0 mg/kg/injection, schedule: Q01DX001 (ip), vehicle: other 96 % of control | dose: 300.0 mg/kg/injection, schedule: Q01DX001 (ip), vehicle: other 98 % of control

CCN(CC)CCN(C)C(=O)C1C(c2ccccc2)C1c1ccccc1 (stereo not given)
inactive: [10] 93 % of control | dose: 50.0 mg/kg/injection, schedule: Q04DX002 (ip), vehicle: Klucel (hydroxypropylcellulose) (HPC) 105 % of control

CCc1oc2cc([N+](=O)[O-])ccc2c1C(OC(C)=O)OC(C)=O
inactive: [2] 100 % of control | [16] 105 % of control | [18] 96 % of control
